From the NIST ThermoML archive (doi:10.1021/je049671t)

Assay: xn = mol fraction of the nth substance listed
Settings: Liquid, Vibrating tube method

CCCC [butane] + CCC
Settings | mass density [kg/m3]
340 K, 4496.8 kPa, x2 = 0.5 | 488.89
340 K, 4514.8 kPa, x2 = 0.25 | 511.39
340 K, 4981.8 kPa, x2 = 0.25 | 512.84
340 K, 4991.2 kPa, x2 = 0.75 | 464.48
340 K, 5012.2 kPa, x2 = 0.5 | 490.8
340 K, 5479.2 kPa, x2 = 0.25 | 514.33
340 K, 5511.6 kPa, x2 = 0.5 | 492.6
340 K, 5517 kPa, x2 = 0.75 | 466.87
340 K, 5958.5 kPa, x2 = 0.25 | 515.74
340 K, 5990.2 kPa, x2 = 0.75 | 468.91
340 K, 6031.2 kPa, x2 = 0.5 | 494.4
340 K, 6477.8 kPa, x2 = 0.25 | 517.22
340 K, 6495 kPa, x2 = 0.75 | 471.01
340 K, 6534.4 kPa, x2 = 0.5 | 496.09
340 K, 6953.2 kPa, x2 = 0.75 | 472.85
340 K, 6991.8 kPa, x2 = 0.25 | 518.67
340 K, 7014.4 kPa, x2 = 0.5 | 497.66
360 K, 1968.3 kPa, x2 = 0.25 | 468.3
360 K, 2483.2 kPa, x2 = 0.25 | 471.24
360 K, 2528 kPa, x2 = 0.5 | 441.58
360 K, 2981.1 kPa, x2 = 0.75 | 400.91
360 K, 3014.4 kPa, x2 = 0.5 | 445.35
360 K, 3030.5 kPa, x2 = 0.25 | 474.17
360 K, 3479.5 kPa, x2 = 0.25 | 476.45
360 K, 3504.1 kPa, x2 = 0.75 | 407.74
360 K, 3530.7 kPa, x2 = 0.5 | 449
360 K, 4004.6 kPa, x2 = 0.25 | 478.98
360 K, 4023.8 kPa, x2 = 0.5 | 452.26
360 K, 4034.2 kPa, x2 = 0.75 | 413.59
360 K, 4494.7 kPa, x2 = 0.25 | 481.23
360 K, 4499.5 kPa, x2 = 0.75 | 418.08
360 K, 4529.2 kPa, x2 = 0.5 | 455.37
360 K, 4959.4 kPa, x2 = 0.75 | 422.1
360 K, 5018.1 kPa, x2 = 0.25 | 483.52
360 K, 5025.4 kPa, x2 = 0.5 | 458.22
360 K, 5477.4 kPa, x2 = 0.75 | 426.13
360 K, 5492.3 kPa, x2 = 0.25 | 485.53
360 K, 5525 kPa, x2 = 0.5 | 460.95
360 K, 5965.8 kPa, x2 = 0.75 | 429.75
360 K, 5999.9 kPa, x2 = 0.25 | 487.58
360 K, 6017.8 kPa, x2 = 0.5 | 463.52
360 K, 6472.2 kPa, x2 = 0.25 | 489.44
360 K, 6494 kPa, x2 = 0.75 | 433.3
360 K, 6530.6 kPa, x2 = 0.5 | 466.12
360 K, 6960.2 kPa, x2 = 0.75 | 436.27
360 K, 6966.9 kPa, x2 = 0.25 | 491.3
360 K, 6972.7 kPa, x2 = 0.5 | 468.36
380 K, 2507.8 kPa, x2 = 0.25 | 426.44
380 K, 3006.4 kPa, x2 = 0.25 | 431.76
380 K, 3508.7 kPa, x2 = 0.25 | 436.48
380 K, 3523.1 kPa, x2 = 0.5 | 395.46
380 K, 3998.7 kPa, x2 = 0.25 | 440.67
380 K, 4001.1 kPa, x2 = 0.5 | 402.87
380 K, 4476.5 kPa, x2 = 0.5 | 409.03
380 K, 4501.1 kPa, x2 = 0.25 | 444.52
380 K, 4538.7 kPa, x2 = 0.75 | 349.07
380 K, 4998.7 kPa, x2 = 0.25 | 448.08
380 K, 5019 kPa, x2 = 0.5 | 415.08
380 K, 5025.3 kPa, x2 = 0.75 | 362.3
380 K, 5491.2 kPa, x2 = 0.75 | 371.58
380 K, 5494.5 kPa, x2 = 0.5 | 419.73
380 K, 5497.5 kPa, x2 = 0.25 | 451.38
380 K, 5962.5 kPa, x2 = 0.5 | 423.89
380 K, 5986.2 kPa, x2 = 0.75 | 379.48
380 K, 5995.5 kPa, x2 = 0.25 | 454.49
380 K, 6480.6 kPa, x2 = 0.5 | 428.09
380 K, 6502.4 kPa, x2 = 0.25 | 457.46
380 K, 6503.9 kPa, x2 = 0.75 | 386.32
380 K, 6897.6 kPa, x2 = 0.75 | 390.75
380 K, 6908.8 kPa, x2 = 0.5 | 431.3
380 K, 6952.8 kPa, x2 = 0.25 | 459.99

mass density [kg/m3]
Settings | 340 K | 360 K | 380 K
x2 = 0.25 | 499.52 | 466.36 | 424.79
x2 = 0.5 | 475.99 | – | 387.07
x2 = 0.75 | 447.59 | 398.44 | –
